Entries after “also recorded” stand apart in the source; their conditions may differ. Where a name gives a salt, the structure may show the parent alone.
Tests used:
[1] = on the order of; cited from earlier work
[2] = solubility of sodium valproate in water; details: early emulsion experiments
[3] = pH titration of sodium valproate solutions (5 mL) with 25 mM HCl (FIG. 7)
[4] = pH of aqueous sodium valproate solutions; format: physicochemical
[5] = test system: human subjects; assay: subject-reported effects during direct brain (CSF) administration of valproate; format: in vivo
[6] = valproate concentration in blood serum and cerebrospinal fluid after administration was stopped (FIG. 1-3); format: in vivo; details: human subjects, FIG. 2
[7] = reported solubility limit; cited from earlier work
[8] = 0.4% sodium citrate (13.6 mM) in 150 mg/mL (0.9 M) sodium valproate
[9] = 150 mg/mL sodium valproate, 5 mL, 25 mM HCl

In the case of NCC(CC(=O)O)c1ccc(Cl)cc1 (stereo not shown) [Baclofen], the half-life [1] is listed as “five”.
For CCCC(CCC)C(=O)O [valproic acid], the “behaviour of emulsified droplets of pure valproic acid (liquid) in water” value [2] was “dissolving into the water”.
With O=C(O)CC(O)(CC(=O)O)C(=O)O [sodium citrate] the “effect of sodium citrate on buffer capacity” value [3, 8] was “does not provide any measurable increase in buffering capacity above pH 7; also recorded: virtually no effect” and the “effect of sodium citrate on initial pH” value [3, 8] was “nor does it significantly change the initial pH”.
With CCCC(CCC)C(=O)[O-].[Na+] [sodium valproate] the pH of solution ([4]; 150 mg/mL sodium valproate in water) was “approximately 8.3”, the pH of solution ([4]; more concentrated solutions (>350 mg/mL)) was “above 9” and the “perception of body temperature” value ([5]; human subjects receiving valproate to the brain) was “always cold”. For the same compound, the “nausea at therapeutic level” value ([5]; human subjects, on reaching a therapeutic level) was “feeling of nauseous which seems to pass over time”, the “concentration in cerebrospinal fluid over time” value [6] was “drops quickly” and the “solubility limits in water, commonly reported” value [7] was 50 to 100 mg/mL. For the same compound, the “volume of 25 mM HCl at which the pH hits the pKa” value ([3]; 10 mM sodium valproate, 5 mL) was 0.6 mL, the “pH at start of titration” value ([3]; 10 mM sodium valproate, 5 mL, before acid) was 6.6 and the “pH after 0.6 mL of acid” value ([3]; 10 mM sodium valproate, 5 mL, 0.6 mL of 25 mM HCl) was 4.81. The “pH after 0.7 mL of acid” value ([3]; 10 mM sodium valproate, 5 mL, 0.7 mL of 25 mM HCl) was 4.74, the “pH after 1 mL of acid” value ([3]; 10 mM sodium valproate, 5 mL, 1 mL of 25 mM HCl added in 0.1 mL increments) was 4.36 and the “change in pH on titration” value ([3]; 150 mg/mL sodium valproate) was “minimal”. For the same compound, the “pH at last point of titration curve” value [3, 9] was 7.30, the “pH at second-to-last point of titration curve” value [3, 9] was 7.34 and the “buffering of concentrated solutions” value ([3]; concentrated solutions of sodium valproate) was “strongly buffer solutions at pH>8”.

Source: patent US11433038B2, “High concentration medicant solutions for treating neurological disorders” (Cerebral Therapeutics, Inc., priority 2017, dated 2022)
